Here are results for five molecules from paper PMC12560828, “Chemical structure drives developmental toxicity of alkyl-substituted naphthalenes in zebrafish” (Environment international, 2025).

Data set [1] has as its system early life stage zebrafish (Danio rerio) embryos. Nature of the data set: Developmental toxicity morphology screen, sealed rotating vial exposure. The format is in vivo. Also noted: bmd, MO24 / bmd, MORT / bmd, ANY_ / bmd, AXIS / bmd, CRAN / bmd, EDEM / bmd, LTRK / bmd, MUSC / bmdL, ANY_ / bmdU, ANY_ / bmdL, AXIS / bmdU, AXIS / bmdL, CRAN / bmdU, CRAN / bmdL, EDEM / bmdU, EDEM / bmdL, LTRK / bmdU, LTRK / bmdL, MO24 / bmdU, MO24 / bmdL, MORT / bmdU, MORT: unit not given here. The settings on record: for BMC50 Any effect: Fig. 2 heatmap, exposure 6-24 hpf in vials, summary of all endpoints; for any effect BMD50: SI-T5; for estimated percent Any effect: at 20 μM, 120 hpf, estimated from fitted concentration-response curves. In a few lines: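 Bleached 6 hpf embryos, eight per sealed glass vial in 2 mL EM, were dosed from a 200x DMSO stock and rotated end-over-end overnight at 28 °C, then moved to chemical-free EM at 24 hpf (32 embryos per treatment). Blinded binary scoring at 120 hpf was pooled as "Any effect". BMC50 is on nominal concentrations.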

Data set [2] relates to zebrafish embryos. Nature of the data set: Body burden measurement (GC-MS/MS) and concentration uptake ratio, vial exposure. It is filed as in vivo, Danio rerio. The settings on record: 20 μM exposure; for measured concentration in embryo extract: 32 pooled embryos, 0.5 mL extract, single replicates. The protocol: Body burden was measured for exposure to five chemicals at two timepoints: 24 and 48 hpf. […] The exposure concentration was chosen as it was the maximum possible concentration that ensured enough viable animals for collection at 48 hpf and allowed direct comparison of chemical uptake at the same exposure concentration.
Chemicals were exposed at 20 μM following the exposure procedure detailed in section 1.3, 24 vials per chemical. At 24 hpf, embryos were pooled in groups of 32 embryos (combining embryos from 4 vials) into 1.5 mL polypropylene RINO-safe lock tubes (n = 3 per chemical treatment, n = 3 per control). Tubes were briefly placed on ice to reduce embryo movement (<1 min); the remaining medium was removed; the tube was then flash frozen in liquid nitrogen and stored at −20 °C until extraction. Embryos in the remaining vials were plated as previously described in section 1.3 until collection at 48 hpf following the same procedure as 24 hpf collections (n = 3 per chemical treatment, n = 1 control).
Tissue extraction was performed as previously reported ([Rude et al., 2025]). Each sample was spiked with 25 μL internal standard in ethyl acetate and 100 μL of 1 mm glass beads (Next Advance, Troy, NY United States) were added to the RINO-safe lock tubes containing thawed tissue samples and left on ice for 10 min 250 mg of Na2SO4 and 200 μL of ethyl acetate were added to each tube and vortexed. Tubes were homogenized at speed 8 for 6 min in a Bullet Blender (Next Advance, Troy, NY, United States). 300 μL of ethyl acetate was added to each tube and the homogenization step was repeated until no pieces of non-homogenized fish tissue remained. Samples were then centrifuged for 10 min at 4 °C, 1600g. Sample supernatant (0.5 mL) was collected into amber vials and stored at 4 °C until chemical analysis.
Samples were analyzed for quantitation and identification of 161 PAHs. The method was performed with an Agilent 7890 gas chromatograph (GC), with a 7000C triple quadrupole mass spectrometer (MS/MS) using an Agilent J&W PAH select (30 m × 250 μm × 0.15 μm GC column). Calibration for each analyte utilized at least a 4-point (range: 4–7, median 6 points, n = 161) curve with R^2 ≥ 0.99. Specific instrument conditions were modified from [Anderson et al. (2015)] and are detailed in Table S3. GC–MS/MS data was analyzed using MassHunter Quantitative Analysis v.B.06.00 SP1 build 6.0.388.1 software (Agilent Corp. Wilmington,DE) ([Anderson et al., 2015]). Dynamic muti-reaction monitoring mode was used during analyses, and all PAHs were identified using analytical standards obtained from multiple sources (Table S1). Collison energies were optimized for each individual unsubstituted PAH, alkylation series (C1, C2, etc.), and when possible, specific alkylation group (i.e. methyl, ethyl, etc.).
Body burden concentrations based on average embryo wet weight at each timepoint were determined by the equation below. Total measured chemical was calculated from ng/mL concentrations times sample volume (0.5 mL). Bodyburdennmol/mgbw=total measured chemicalnmol/number of fish32×average body weightmg
Average body weights at 24 hpf and 48 hpf were assumed to be 0.31 mg and 0.26 mg, respectively as determined previously ([Rericha et al., 2024]). Statistical analysis to compare time points within chemicals was performed using a two-sided Student’s t-test (p-value ≤ 0.05). An ANOVA with a follow-up Dunn’s test was used to compare body burden between chemicals at 24 hpf (p-value ≤ 0.05). Body burden concentrations at 24 hpf were compared to the estimated percent effect of each measured chemical at the exposure concentration used for body burden analysis (20 μM). These estimates were made using the fitted concentration-response curves previously described in section 2.3.2.2.
Concentration uptake ratios between vial exposures and 96-well plate exposures were compared using a two-sided Student’s t-test, p-values ≤ 0.05 were considered significant. […]

The mark [3] stands for this setting: benchmark dose, morphology endpoint ANY_ (any effect).
[4] abbreviates: benchmark dose, morphology endpoint AXIS.
The mark [5] stands for this setting: benchmark dose, morphology endpoint CRAN.

Molecules are shown by their SMILES. Values joined by “and” are separate entries in the source; they are usually repeats but may differ in a detail not shown here. Identical values can stand only once.

Take `Cc1cccc2c(C)cccc12` [1,5-dimethylnaphthalene]: in data set [1] (Fig. 2, nominal concentration), the “BMC50 AXIS (curved or bent body axis at 120 hpf)” value (shortened to “BMC50 AXIS”) is 47.6 µM, the “BMC50 CRAN (craniofacial malformation at 120 hpf)” value (“BMC50 CRAN” for short) is 48.3 µM, the “BMC50 EDEM (pericardial and/or yolk sac edema at 120 hpf)” value is 47.8 µM and the “BMC50 MO24 (mortality at 24 hpf)” value is “no MO24 BMC50”. For the same molecule, in data set [1] (nominal concentration), the “BMC50 Any effect” value came out at 36.9 µM. Besides, in data set [1], the “any effect BMD50” value is 36.95 µM and the “estimated percent Any effect” value is reported as 13%. Further, in data set [1] (setting [3]), the “bmd, ANY_” value is on record as 36.9476. In data set [1] (setting [4]), the “bmd, AXIS” value amounted to 47.5678. For the same molecule, the “bmd, CRAN” value in data set [1] (setting [5]) amounted to 48.2521. Also, the “bmd, EDEM” value in data set [1] (benchmark dose, morphology endpoint EDEM) came out at 47.802. In data set [2] (24 hpf), the “measured concentration in embryo extract” value is 28000 ng/mL and 23900 ng/mL. Moreover, the “measured concentration in embryo extract” value in data set [2] (48 hpf) is 9300 ng/mL and 7200 ng/mL.
For the molecule `Cc1ccc2cccc(C)c2c1` [1,7-dimethylnaphthalene], in data set [1] (Fig. 2, nominal concentration), the “BMC50 AXIS” value was determined as 23.9 µM, the “BMC50 LTRK (lower trunk and/or caudal fin at 120 hpf)” value is 30 µM, the “BMC50 MORT (mortality at 120 hpf)” value is listed as “not associated with mortality” and the “BMC50 MUSC (muscular/cardiovascular at 120 hpf)” value is 45.7 µM. In addition, the “BMC50 Any effect” value in data set [1] (nominal concentration) amounted to 20.1 µM. In data set [1], the “any effect BMD50” value stood at 20.09 µM and the “estimated percent Any effect” value is recorded as 52%. In addition, in data set [1] (setting [3]), the “bmd, ANY_” value was found to be 20.0865. For the same molecule, the “bmd, AXIS” value in data set [1] (setting [4]) worked out at 23.9279. Moreover, the “bmd, LTRK” value in data set [1] (benchmark dose, morphology endpoint LTRK) amounted to 29.9891. Moreover, the “bmd, MUSC” value in data set [1] (benchmark dose, morphology endpoint MUSC) was 45.7133. Moreover, in data set [2] (24 hpf), the body burden concentration entry is reported as “highest concentration”; the “measured concentration in embryo extract” value is 33000 ng/mL and 33300 ng/mL. In data set [2] (48 hpf), the “measured concentration in embryo extract” value is 11600 ng/mL and 10100 ng/mL.
In the case of `Cc1cc(C)c2c(C)cccc2c1` [2,4,5-trimethylnaphthalene], in data set [1] (Fig. 2, nominal concentration), the “BMC50 AXIS” value was found to be 24.2 µM, the “BMC50 CRAN” value is 24.8 µM, the “BMC50 MO24 (mortality at 24 hpf)” value stood at 25.7 µM and the “BMC50 MORT (mortality at 120 hpf)” value is 24.2 µM. Also, the “BMC50 Any effect” value in data set [1] (nominal concentration) stood at 22 µM. In addition, the “any effect BMD50” value in data set [1] was 22.04 µM. The “bmd, MO24” value in data set [1] (benchmark dose, endpoint MO24) stood at 25.7458. In addition, the “bmd, MORT” value in data set [1] (benchmark dose, endpoint MORT) amounted to 24.2071. In addition, the “bmd, ANY_” value in data set [1] (setting [3]) is listed as 22.0373. For the same molecule, the “bmd, AXIS” value in data set [1] (setting [4]) is 24.1954. For the same molecule, the “bmd, CRAN” value in data set [1] (setting [5]) came out at 24.8219. Also, the “percent reduction in body burden between 24 and 48 hpf” value in data set [2] was found to be 46%. Further, the “measured concentration in embryo extract” value in data set [2] (24 hpf) is 9270 ng/mL and 6860 ng/mL. In data set [2] (48 hpf), the “measured concentration in embryo extract” value was 4950 ng/mL and 4550 ng/mL and 2080 ng/mL.
As for `Cc1ccc2ccc(C)cc2c1` [2,7-dimethylnaphthalene], the “estimated percent Any effect” value in data set [1] is listed as 12%. The “measured concentration in embryo extract” value in data set [2] (24 hpf) was 19900 ng/mL; in data set [2] (48 hpf), 8080 ng/mL and 7630 ng/mL.
As to `CCc1ccc2ccccc2c1` [2-ethylnaphthalene], in data set [1] (Fig. 2, nominal concentration), the “BMC50 AXIS” value amounted to 44.9 µM, the “BMC50 CRAN” value came out at 45.7 µM, the “BMC50 EDEM (pericardial and/or yolk sac edema at 120 hpf)” value was determined as 42.3 µM and the “BMC50 LTRK (lower trunk and/or caudal fin at 120 hpf)” value was determined as 49.8 µM. Also, in data set [1] (Fig. 2, nominal concentration), the “BMC50 MO24 (mortality at 24 hpf)” value worked out at 47.1 µM and the “BMC50 MORT (mortality at 120 hpf)” value was 44.6 µM. Moreover, the “BMC50 Any effect” value in data set [1] (nominal concentration) came to 35.2 µM. The “any effect BMD50” value in data set [1] worked out at 35.16 µM. In addition, the “bmd, MO24” value in data set [1] (endpoint MO24, benchmark dose) came out at 47.121. Further, the “bmdL, MO24” value in data set [1] (endpoint MO24, lower limit of benchmark dose) is recorded as 45.5775. In addition, the “bmdU, MO24” value in data set [1] (endpoint MO24, upper limit of benchmark dose) worked out at 48.8332. Moreover, the “bmd, MORT” value in data set [1] (endpoint MORT, benchmark dose) was 44.5979. In addition, in data set [1] (endpoint MORT, lower limit of benchmark dose), the “bmdL, MORT” value amounted to 42.8494. In data set [1] (endpoint MORT, upper limit of benchmark dose), the “bmdU, MORT” value was 46.3328. Further, the “bmd, ANY_” value in data set [1] (morphology endpoint ANY_, benchmark dose) was found to be 35.1578. In data set [1] (morphology endpoint ANY_, lower limit of benchmark dose), the “bmdL, ANY_” value is given as 33.394. The “bmdU, ANY_” value in data set [1] (morphology endpoint ANY_, upper limit of benchmark dose) was found to be 36.9258. Besides, the “bmd, AXIS” value in data set [1] (morphology endpoint AXIS, benchmark dose) is 44.9036. For the same molecule, in data set [1] (morphology endpoint AXIS, lower limit of benchmark dose), the “bmdL, AXIS” value was found to be 41.901. Also, the “bmdU, AXIS” value in data set [1] (morphology endpoint AXIS, upper limit of benchmark dose) worked out at 49.465. Further, the “bmd, CRAN” value in data set [1] (morphology endpoint CRAN, benchmark dose) amounted to 45.7058. In addition, the “bmdL, CRAN” value in data set [1] (morphology endpoint CRAN, lower limit of benchmark dose) came out at 42.7078. Moreover, in data set [1] (morphology endpoint CRAN, upper limit of benchmark dose), the “bmdU, CRAN” value came out at 50.351. Moreover, the “bmd, EDEM” value in data set [1] (morphology endpoint EDEM, benchmark dose) worked out at 42.2958. In addition, in data set [1] (morphology endpoint EDEM, lower limit of benchmark dose), the “bmdL, EDEM” value was 39.552. Further, the “bmdU, EDEM” value in data set [1] (morphology endpoint EDEM, upper limit of benchmark dose) stood at 46.0615. Moreover, the “bmd, LTRK” value in data set [1] (morphology endpoint LTRK, benchmark dose) stood at 49.8262. Besides, the “bmdL, LTRK” value in data set [1] (morphology endpoint LTRK, lower limit of benchmark dose) came out at 46.6984. Also, the “bmdU, LTRK” value in data set [1] (morphology endpoint LTRK, upper limit of benchmark dose) amounted to 55.8128.
